Assay [1] deals with M2 versus M3 muscarinic receptor subtype. The note with it: cited from earlier work.
Assay [2] relates to M2 versus M1 muscarinic receptor subtype. The note with it: cited from earlier work.
The subject of assay [3] is canine model, vagal stimulation. Put plainly: Canine arrhythmia model: ERP shortening and AF induced by vagal stimulation. In kind it is in vivo. As to conditions: 20 microgram/kg single iv, 10-15 minutes after administration. As for the experimental part: Canine Arrhythmia Model. […] Bioorg. Med. Chem. 2007, 15, 2312-2321), was evaluated for its ability to decrease effective refractory period and atrial fibrillation induced by vagal stimulation. Open chest electrophysiological mapping was performed in a canine model as previously described (Arora, R. et al. Am. J. Physiol. Heart Circ. Physiol. 2008, 294, […]-[…]). […] At baseline, effective refractory periods (ERPs) were obtained at multiple sites on each plaque in the absence and presence of vagal stimulation (VS). AF inducibility was also assessed under each of these conditions i.e. with and without VS. After baseline measurements had been made, methoctramine tetrahydrochloride hydrate (20 microgram/kg), dissolved in normal saline, was administered via a single iv injection. 10-15 minutes after methoctramine administration, ERPs and AF inducibility were reassessed in the absence and presence of VS.

For assay [4], the system named is canines subjected to heart failure (HF). Put plainly: Vagal stimulation induced ERP shortening in canine heart failure model (rapid ventricular pacing). The assay is classed as in vivo. The note with it: left atrium, in presence of AChE inhibitor, without it 10±4. On the procedure: Effective Refractory Periods. Effective refractory periods (ERPs) were obtained from 5 distributed sites from the PV, 6 sites from the PLA, and 4 sites from the LAA during each autonomic intervention. For each ERP, the pacing protocol consisted of a drive train (S1) of eight beats with a cycle length of 400 ms followed by an extrastimulus (S2). The S2 was decremented by 10 ms until loss of capture. […] Pacing was performed at an output current twice the threshold required for consistent capture of the tissue. The mean ERP was used as the representative ERP for each of the three sites as well as the entire left atrium.
Canines were subjected to heart failure (HF) by rapid ventricular pacing (240/min for 3 weeks). Vagal stimulation induced ERP shortening (VS-ΔERP)(ms) was assessed in the test canines as well as controls at multiple sites in the LA. VS-ΔERP was reassessed in the presence of an acetylcholineesterase (AChE) inhibitor (physostigmine). Explanted LA were subjected to 1) ELISA for acetylcholinesterase (AChE) activity, 2) AChE immunostaining and 3) radioactive M2 receptor binding assay.

For `CC(C)N(CC[C@H](c1ccccc1)c1cc(CO)ccc1O)C(C)C`, the “selectivity for M2 versus M3” value in assay [1] is reported as 2 fold.

For `Cc1cccc(C(=O)N2CCC(N3CCC(Cc4ccc(S(=O)(=O)c5cccc(Cl)c5)cc4)CC3)CC2)c1N` [Sch 211803], the “selectivity for M2 versus M1” value in assay [2] is 734 fold. In addition, the “selectivity for M2 versus M3” value in assay [1] is recorded as 786 fold. For `COc1ccncc1CN1CCC(N(CCCCCCCN2CC[C@@H](C(C(N)=O)(c3ccccc3)c3ccccc3)C2)C(C)C)CC1` [TD-6301], in assay [2], the “selectivity for M2 versus M1” value is 31 fold. In addition, in assay [1], the “selectivity for M2 versus M3” value is 36 fold. For `COc1ccccc1CNCCCCCCNCCCCCCCCNCCCCCCNCc1ccccc1OC` [methoctramine], the “Vagal induced AF” value in assay [3] is recorded as “markedly decreased”. In addition, in assay [3] (baseline 40 ms, p<0.01), the “Vagal induced ERP shortening” value was determined as 10 ms. In assay [2], the “selectivity for M2 versus M1” value is listed as 35 fold. Also, in assay [1], the “selectivity for M2 versus M3” value is 219 fold.

For the molecule `CNC(=O)Oc1ccc2c(c1)[C@]1(C)CCN(C)[C@@H]1N2C` [physostigmine], in assay [4], the “Vagal stimulation induced ERP shortening (VS-ΔERP)” value stood at 28 ± 4 ms.

With `Cc1ccc(O)c([C@H](CCN(C(C)C)C(C)C)c2ccccc2)c1` [tolterodine], the “selectivity for M2 versus M3” value in assay [1] is on record as 1.7 fold.

The values are drawn from patent US20190076417A1, “COMPOSITIONS AND METHODS FOR TREATING OR PREVENTING ATRIAL FIBRILLATION” (Northwestern University, priority 2010, published 2019).
